The record followed here is patent publication US8785401B2, “Methods for treating diseases having an inflammatory component related to phospholipase A2” (Philadelphia Health & Education Corporation, priority 2005, dated 2014).

For the test, the system named is sPLA2. The settings on record: CHEC-9 0.4 μM, LY31127 5.0 μM, whole blood, two 90 min periods at 4°.

In the case of `CCc1c(CC(N)=O)c2cc(OCCCP(=O)(O)O)ccc2n1Cc1ccccc1` [LY311727], the “comparison of sPLA2 inhibition by the inhibitors alone and in sequence” value is “equally effective inhibitors”.
